{
  "source": "patent US20240091227A1",
  "about": "“Use Of 2-Phenyl-6-(1H-Imidazol-1-YL) Quinazoline For Treating Neurodegenerative Diseases, Preferably Alzheimer's Disease” (ROTTAPHARM BIOTECH S.R.L., priority 2019, published 2024)",
  "key": {"[1]": {"system": "Mice treated with scopolamine", "assay": "Novel object recognition in scopolamine-induced memory impairment", "assay_type": "in vivo, mouse", "conditions": "scopolamine 1 mg/kg ip, CR4056 6 and 20 mg/kg os", "method": "FIG. 5 reports the results of Novel Object recognition test in the model of scopolamine-induced memory loss. Data presented as % of time spent on exploration of new and old object in testing phase. *p<0.05; **P<0.01; t student test (n=6).\nThe novel object recognition test was used to evaluate cognitive function based on the ability of mice to recognize various object proposed in the arena test. During the training phase a pair of identical objects were placed in the cage test. 24 hours after the first phase, during the testing phase one of the two object was replaced by a new different one. Time of exploration of each object was recorded in training and testing phase. The typical approach of mice was a similar exploration of the objects in training phase and a preference for the new object during the testing phase. The administration of substances that can worsen cognitive performance (i.e., scopolamine) caused the deletion of reminder of the old object and an equal exploration of 2 different objects. Scopolamine 1 mg/kg was administered ip 20 minutes before the training, whereas CR4056 6 and 20 mg/kg was administered os 40 minutes before the training."}, "[2]": {"system": "Rats treated with scopolamine", "assay": "Morris water maze in scopolamine-induced memory impairment", "assay_type": "in vivo, rat", "conditions": "scopolamine 1 mg/kg sc, CR4056 20 mg/kg os, mean over four days", "method": "FIG. 4 reports the results of the Morris Water Maze test in the model of scopolamine-induced memory loss. Rats treated with scopolamine (Sco, 1 mg/kg) or physiological solution (Sal) received CR4056 20 mg/kg/die or its vehicle (MC). Data represented the mean time spent to reach the hidden platform over four days. Two way ANOVA. Tukey Comparison test. ** P<0.01.\nThe Morris water maze test was used to evaluate cognitive function distinct in two phases: first, the acquisition and spatial localization of a hidden platform and, subsequently, the processing, consolidating, retaining and then retrieving the acquired information to successfully locate the platform to escape the water.\nPlace navigation required the rats to learn to swim from any starting position to the escape platform, thereby acquiring a long-term memory of the platform's spatial location. Animals were placed into various quadrants of the pool and the time elapsed and the distance traversed to reach the hidden platform was recorded. Various objects were placed in the testing room so that the animals used these visual cues as a means of navigating in the Maze. After repeated entry into the Maze, the animals became more and more efficient at locating the platform, thus escaping the water by learning the location of the platform relative to the distal visual cues. […]"}, "[3]": {"system": "Transgenic 5XFAD mice", "assay": "Novel object recognition in transgenic 5XFAD mice model of Alzheimer's disease", "assay_type": "in vivo, mouse", "conditions": "30 mg/kg orally once a day for 10 days", "source_text": "FIG. 6 reports the results of Novel Object Recognition test in transgenic 5XFAD mice model of Alzheimer disease. (Obj C=new object) *p<0.0001, unpaired t Student test.\nTransgenic 5XFAD mice, overexpressing the human amyloid precursor protein (APP695) with Swedish (K670N/M671L), Florida (I716V) and London (V717I) familial Alzheimer's disease (FAD) mutations, as well as human Presenilin1 (PS1) with M146L and L286V FAD mutations were used as Alzheimer's disease model. 6 months old female transgenic 5XFAD mice and wild-type controls (WT) were treated orally (gavage) with 30 mg/kg of CR4056 or vehicle once a day for a period of 10 days (n=4 WT/Vehicle, 8 WT/CR4056, 2 5XFAD/Vehicle, and 3 5XFAD/CR4056). Following repeated treatments, hippocampal-dependent memory was tested using the novel object recognition task. The object recognition test measures working and spatial memory. In the training phase, animals were placed in the arena with objects constructed from large plastic bricks. In the testing phase, one object was replaced by a novel object. Animals were returned in the arena and allowed to explore. Exploration of objects was observed and recorded. Mice should recognize that a new object has been placed and therefore explore this object for longer time."}, "[4]": {"system": "COX-2", "assay": "COX-2 gene expression in IL-1β-stimulated U373 MG astrocytoma cells (RT-PCR)", "assay_type": "cell-based, human", "conditions": "IL-1β 2 ng/ml", "method": "A model of astrocytes, the human glioblastoma astrocytoma cell line U373 MG (Uppsala), was used for these experiments. Adherent cells were grown in DMEM medium supplemented with 10% FBS at 37° C. with CO2. 72 hours after plating, cells were treated for 1 h with 2-phenyl-6-(1H-imidazol-1-yl)quinazoline (CR4056) (10 μM) prepared according to EP2066653 and then stimulated with the pro-inflammatory cytokine IL-1β (2 ng/mL) for further 6 and 24 h.\nAt the end of incubation period, total RNA was obtained and retro-transcribed using the High-Capacity cDNA Reverse Transcription Kit (Thermo Fisher Scientific). The levels of expression of COX-2, IL-1β, IL-6 and TNFα were evaluated by RT-PCR analysis, performed using the Applied Biosystems 7500 Fast Real-Time PCR System using specific TaqMan assays and, as an endogenous control, the 18S Pre-Developed TaqMan® Assay (Thermo Fisher Scientific). The data analysis, with normalisation on 18S amplified values, was according to Thermo Fisher Scientific specific instructions for gene expression relative quantification. All individual data were the result of at least three different measurements for each sample.\nPercentage of gene expression inhibition observed in U373 cells stimulated with IL-1β 2 ng/ml and exposed to 10 μM CR4056 for the indicated time."}},
  "data": [
    {"compound": "c1ccc(-c2ncc3cc(-n4ccnc4)ccc3n2)cc1", "note": "[CR4056, 2-phenyl-6-(1H-imidazol-1-yl)quinazoline]", "values": [
      {"measurement": "Time of exploration of the new object in testing phase, novel object recognition", "setting": "[1]", "result": "increased the time of exploration of the new object"},
      {"measurement": "Time to reach the hidden platform, Morris water maze", "setting": "[2]", "result": "significantly reduced the time taken to get to the platform"},
      {"measurement": "Working and spatial memory, novel object recognition", "setting": "[3]", "result": "significant improvement in the working and spatial memory"},
      {"measurement": "Percentage of gene expression inhibition, COX-2", "setting": "[4]; 10 μM CR4056, 6 h", "result": 45, "unit": "%"},
      {"measurement": "Percentage of gene expression inhibition, COX-2", "setting": "[4]; 10 μM CR4056, 24 h", "result": 48, "unit": "%"}
    ]}
  ]
}
